Data as given in patent US20210324359A1, “USE OF GRAM-NEGATIVE LYSIN-ANTIMICROBIAL PEPTIDE (AMP) POLYPEPTIDE CONSTRUCTS IN TREATING ENDOCARDITIS” (priority 2020, published 2021).
Read-outs that look alike come from different tables or passages of the source.

Tests used:
[1] = system: P. aeruginosa isolate CFS 1558 (PA20); assay type: in vivo
Protocol: A rabbit pulmonary model was used to assess the efficacy of the GN370 lysin alone and in combination with an antibiotic (meropenem). Initially, rabbits were infected intratracheally with P. aeruginosa isolate CFS 1558 (PA20) (3×10^9 CFU). Treatment commenced 6 hours post-infection.

[2] = system: 15 P. aeruginosa isolates; test: MIC of GN370 in dog, human, rabbit and rat serum and CAAT; meropenem in CAMHB (Table 33); assay type: cell-based, Pseudomonas aeruginosa; details: Pseudomonas aeruginosa, CAMHB
P. aeruginosa PA20 = test: MIC of GN370 and meropenem against the infecting strain; assay type: cell-based, Pseudomonas aeruginosa; details: Pseudomonas aeruginosa
[3] = system: P. aeruginosa strain WC-453; test: Time-kill assay in HEPES or CAA with 25% human serum (Tables 7, 8); assay type: cell-based, Pseudomonas aeruginosa
Protocol: Exponential phase bacteria were then pelleted and resuspended in 1/5 culture volume of 25 mM HEPES, pH 7.4 before a final adjustment to an optical density corresponding to a McFarland value of 0.5. […] All treatments were incubated at 37° C. with aeration. At time points before the addition of lysin (or buffer control) and at 1 hour and 3 hours intervals thereafter, culture samples were removed for quantitative plating on CAA agar plates.

C[C@@H](O)[C@H]1C(=O)N2C(C(=O)O)=C(S[C@@H]3CN[C@H](C(=O)N(C)C)C3)[C@H](C)[C@H]12 [Meropenem, meropenem, reference compound]
decrease of mean bacterial density in lungs ([1]; agent alone, compared to the starting CFU and the vehicle control group): about 2 log10 CFU/g | Bacterial burden, Kidneys ([1]; meropenem 20 mg/kg): 3.92 ± 0.63 log10 CFU/g | Bacterial burden, Lung 1 ([1]; meropenem 20 mg/kg): 5.80 ± 0.88 log10 CFU/g | Bacterial burden, Lung 2 ([1]; meropenem 20 mg/kg): 5.98 ± 1.14 log10 CFU/g | Bacterial burden, Spleen ([1]; meropenem 20 mg/kg): 3.62 ± 0.21 log10 CFU/g | Log10 CFU/g of vegetation ([1]; rabbit lung, Meropenem 20 mg/kg): 6.12 ± 0.89 Log10 CFU/g | MIC ([2]; ATCC25668, read-out: MIC Meropenem, strain ATCC 25668): 2 µg/mL | MIC ([2]; ATCC27853, read-out: MIC Meropenem, strain ATCC 27853): 0.5 µg/mL | MIC ([2]; PA1, read-out: MIC Meropenem, strain PA1): 32 µg/mL | MIC ([2]; read-out: MIC Meropenem, strain AR0231): 128 µg/mL | MIC ([2]; read-out: MIC Meropenem, strain AR0241): > 256 µg/mL | MIC ([2]; read-out: MIC Meropenem, strain AR0246): 32 µg/mL | MIC ([2]; read-out: MIC Meropenem, strain PA2): 16 µg/mL | MIC ([2]; read-out: MIC Meropenem, strain PA3): 8 µg/mL | MIC ([2]; read-out: MIC Meropenem, strain PA19): 32 µg/mL | MIC ([2]; read-out: MIC Meropenem, strain PA20): 32 µg/mL | MIC ([2]; read-out: MIC Meropenem, strain PA22): 16 µg/mL | MIC ([2]; read-out: MIC Meropenem, strain PA23): 16 µg/mL | MIC ([2]; read-out: MIC Meropenem, strain PA24): > 32 µg/mL | MIC ([2]; read-out: MIC Meropenem, strain PA27): 1 µg/mL | MIC ([2]; read-out: MIC Meropenem, strain PA453): 64 µg/mL | MIC (P. aeruginosa PA20; GN370, read-out: MIC against P. aeruginosa): 16 µg/mL | MIC (P. aeruginosa PA20; PA20, read-out: MIC of P. aeruginosa PA20): 16 µg/mL

B1: GN121: variant lysin (SEQ ID NO: 175), also disclosed in WO 2019/118632 (protein)
chain: MTYTLSKRSLDNLKGVHPDLVAVVHRAIQLTPVDFAVIEGLRSVSRQKELVAAGASKTMNSRHLTGHAVDLAAYVNGIRWDWPLYDAIAVAVKAAAKELGVAIVWGGDWTTFKDGPHFELDRSKYRRKKTRKRLKKIGKVLKWI
bactericidal activity (CFU decrease of 3-Log10, 3 hours after the addition of lysin) ([3]; 10 μg/mL, enumerated lysins in CAA/HuS, general statement for HEPES and CAA/HuS): bactericidal activity | HEPES (Log10 CFU/mL), 1 hr ([3]; 25 mM HEPES pH 7.4, lysin 10 μg/ml, 1 hr, WC-453): <3.7 Log10 CFU/mL | HEPES (Log10 CFU/mL), 3 hr ([3]; 25 mM HEPES pH 7.4, lysin 10 μg/ml, 3 hr, WC-453): <3.7 Log10 CFU/mL | CAA/HuS (Log10 CFU/mL), 1 hr ([3]; CAA + 25% human serum, lysin 10 μg/ml, 1 hr, WC-453): 7.6 Log10 CFU/mL | CAA/HuS (Log10 CFU/mL), 3 hr ([3]; CAA + 25% human serum, lysin 10 μg/ml, 3 hr, WC-453): <3.7 Log10 CFU/mL
